Assay results published in ChEMBL document CHEMBL1201862, “PubChem BioAssay data set” (2004).
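Each compound was tested at five concentrations against cells in 96-well plates for 48 hours. GI50 marks 50% less growth.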 The source made the active and inactive calls. No stated cut-off is given here; in the data, active = GI50 up to about 1.1 µM and inactive = higher.

What was measured:
Assay in all cases: NCI-60 cell line screen, 48 h
SW-620 = tested on: SW-620
HL-60 = tested on: HL-60
Malme-3M = tested on: Malme-3M
HT-29 = tested on: HT-29
HOP-62 = tested on: HOP-62
HCT-116 = tested on: HCT-116
OVCAR-8 = tested on: OVCAR-8
MOLT-4 = tested on: MOLT-4
SNB-19 = tested on: SNB-19
DLD-1 = tested on: DLD-1
PC-3 = tested on: PC-3
DU-145 = tested on: DU-145
KM12 = tested on: KM12
COLO 205 = tested on: COLO 205
Hs-578T = tested on: Hs-578T
U-251 = tested on: U-251
NCI/ADR-RES = tested on: NCI/ADR-RES
NCI-H226 = tested on: NCI-H226
HCT-15 = tested on: HCT-15
RPMI-8226 = tested on: RPMI-8226

| Compound | GI50 (SW-620) | GI50 (HL-60) | GI50 (Malme-3M) | GI50 (HT-29) | GI50 (HOP-62) | GI50 (HCT-116) | GI50 (OVCAR-8) | GI50 (MOLT-4) | GI50 (SNB-19) | GI50 (DLD-1) | GI50 (PC-3) | GI50 (DU-145) | GI50 (KM12) | GI50 (COLO 205) | GI50 (Hs-578T) | GI50 (U-251) | GI50 (NCI/ADR-RES) | GI50 (NCI-H226) | GI50 (HCT-15) [µM] | GI50 (RPMI-8226) |
| --- | --- | --- | --- | --- | --- | --- | --- | --- | --- | --- | --- | --- | --- | --- | --- | --- | --- | --- | --- | --- |
| CCOC(=O)/C(=C\c1ccccc1)C(=O)CCN1CCOCC1 | 2.33 µM (inactive) | 1.4 µM (inactive) | 2.7 µM (inactive) | 6.3 µM (inactive) | 21 µM (inactive) | 8.97 µM (inactive) | 4.06 µM (inactive) | 1.99 µM (inactive) | 16.2 µM (inactive) | 2.43 µM (inactive) | 12.2 µM (inactive) | 17.2 µM (inactive) | 7.94 µM (inactive) | 3.66 µM (inactive) | 47.1 µM (inactive) | 8.55 µM (inactive) | 3.06 µM (inactive) | 20.7 µM (inactive) | 3.2 | 2.07 µM (inactive) |
| Nc1ccccc1C(=O)CCC1C(=O)NC(=S)NC1=O | > 100 µM (inactive) | > 100 µM (inactive) | > 100 µM (inactive) | > 100 µM (inactive) | > 100 µM (inactive) | > 100 µM (inactive) | > 100 µM (inactive) | > 100 µM (inactive) | > 100 µM (inactive) | > 100 µM (inactive) | > 100 µM (inactive) | > 100 µM (inactive) | > 100 µM (inactive) | > 100 µM (inactive) | > 100 µM (inactive) | > 100 µM (inactive) | > 100 µM (inactive) | > 100 µM (inactive) | > 100 | > 100 µM (inactive) |
| CC(C(=O)O)/C(=C\c1ccc2c(c1)OCO2)C(=O)O (stereo not given) | > 100 µM (inactive) | 0.0226 µM (active) | > 100 µM (inactive) | > 61.5 µM (inactive) | > 100 µM (inactive) | > 100 µM (inactive) | > 100 µM (inactive) | > 6.89 µM (inactive) | > 100 µM (inactive) | > 100 µM (inactive) | > 100 µM (inactive) | > 100 µM (inactive) | > 100 µM (inactive) | > 100 µM (inactive) | > 100 µM (inactive) | > 100 µM (inactive) | > 100 µM (inactive) | > 77.6 µM (inactive) | > 100 | > 100 µM (inactive) |
